Data taken from PMC3793977, “High-Throughput Screening (HTS) and Hit Validation to Identify Small Molecule Inhibitors with Activity against NS3/4A proteases from Multiple Hepatitis C Virus Genotypes” (PLoS ONE, 2013).

Tests used:
Type in all cases: biochemical
[1] = target: T1, full-length NS3/4A genotype 1b mutant A156T (Hepatitis C virus genotype 1b, UniProt Q9WMX2, A1182T); test: Inhibition assay with drug-resistant mutant A156T
T1 construct: wild-type HCV NS3 (HCV polyprotein residues 1027–1657); His-tag (N); made in house
Description: (§1) The full-length genes of wild-type HCV NS3 (HCV polyprotein residues 1027–1657) with a his-tag at the N-terminus and NS4A (residues 1658–1711) with no tag were cloned, co-expressed, and purified as described. Eight NS3 drug resistant mutants (V36M, V36A, T54A, R155K, R155T, A156T, A156S, and 156V) were generated by mutagenesis using full-length, wild-type NS3-containing recombinant plasmid (pETDuet-1/FL NS3/4A) as a template. The over-expression and purification of all mutants were performed by the same method as the wild-type with minor modifications.
(§2) The inhibitory activity of the final hit compounds from HTS were tested against three other HCV genotypes (1a, 2a, and 4d), along with a control (genotype 1b) and five NS3 drug-resistant mutants. Eight full-length NS3 mutants (V36M, R155K, A156T, A156S, 156V, V36A, T54A, and R155T) were generated by mutagenesis and purified, and the three HCV NS3/4A protease genotypes were purchased from Anaspec. Unfortunately the enzyme activities of the three mutants V36A, T54A, and R155T were much less than that of the rest of the mutants and were insufficient for testing, therefore mutant studies were done with the five active mutants. Continuous kinetic assays were performed against all hit compounds in the same way as the wild-type NS3/4A. […]

[2] = target: T2, full-length NS3/4A genotype 1b mutant A156S (Hepatitis C virus genotype 1b, UniProt Q9WMX2, A1182S); test: Inhibition assay with drug-resistant mutant A156S
T2 construct: wild-type HCV NS3 (HCV polyprotein residues 1027–1657); His-tag (N); made in house
Description: as §1, §2

[3] = target: T3, full-length NS3/4A genotype 1b mutant A156V (Hepatitis C virus genotype 1b, UniProt Q9WMX2, A1182V); test: Inhibition assay with drug-resistant mutant A156V; settings: genotype 1b full-length mutant
T3 construct: wild-type HCV NS3 (HCV polyprotein residues 1027–1657); His-tag (N); made in house
Description: as §1, §2

[4] = target: T4, full-length NS3/4A genotype 1b mutant V36M (Hepatitis C virus genotype 1b, UniProt Q9WMX2, V1062M); test: Inhibition assay with drug-resistant mutant V36M; settings: genotype 1b full-length mutant
T4 construct: wild-type HCV NS3 (HCV polyprotein residues 1027–1657); His-tag (N); made in house
Description: as §1, §2

Measured: IC50

Cc1cc(NC(=O)Cc2csc(NS(=O)(=O)c3ccccc3)n2)ccc1Br [Compound 12]
≤ 20 µM: all assays above
